Measured values from patent publication US9540648B2, “Therapeutic use of activators of zinc finger protein GL13” (Universität Leipzig, priority 2012, dated 2017).

Assays:
[1] = system: mouse hepatocytes; assay: Cyclopamine: accumulation of neutral lipids in cultured mouse hepatocytes (Nile red staining); format: cell-based; conditions: 10 μM cyclopamine, 72 h
Protocol: (§1) Cyclopamine (Sigma) was dissolved in DMSO (10 mM). Mouse and human hepatocytes were incubated for 72 h in the presence of 10 μM Cyclopamine. Control cultures were incubated with culture medium containing vehicle (0.1% DMSO).
(§2) Fluorescent staining of neutral lipids in hepatocytes was performed using Nile red (Biomol). Hepatocytes were fixed with 4% buffered paraformaldehyde for 10 min. For Nile red staining, a 200 nM working solution in phosphate-buffered saline (PBS) was prepared from a 1 mM stock solution in DMSO and was added directly to the fixed cells. After 20 min of incubation at room temperature cells were washed in PBS. Nuclei were counterstained with DAPI (Sigma).
(§3) Primary hepatocytes from SLC mice were isolated by collagenase perfusion of the liver. Cell suspension was carefully cleared from non-parenchymal cells by differential centrifugation. Finally, hepatocytes were suspended in Williams Medium E containing 10% fetal calf serum and further additions as described (Klingmüller et al., 2006), and were plated onto 6-well or 12-well plates precoated with collagen type I (Klingmüller et al., 2006; Gebhardt et al., 1982). After 4 h, serum-free medium was used throughout cultivation. Cryopreserved human hepatocytes were purchased from TebuBio (Offenbach, Germany). […]

[2] = system: human hepatocytes; assay: Cyclopamine: accumulation of neutral lipids in cultured human hepatocytes (Nile red staining); format: cell-based; conditions: 10 μM cyclopamine, 72 h
Protocol: as §1, §2, §3

[3] = system: murine C57BL/6-N hepatocytes; assay: Silencing of Sufu by siRNA in hepatocytes, gene expression by real time PCR; format: cell-based
Protocol: (§4) The levels of all mRNA transcripts were determined in duplicate by qRT-PCR using the Light Cycler® 2.0 Instrument and the LightCycler® FastStart DNA Master PLUS SYBR Green I (Roche). Using the standard curve method, the absolute quantitation of specific PCR products for each primer set was generated. For normalization, β-actin was amplified from each sample.
(§5) Freshly isolated hepatocytes were seeded at a density of 100.000 cells per well of 12-well plates in normal culture medium containing 10% FCS. After 4 h, serum-free medium was used and chemically synthesized siRNAs ([…] for GLI2 and GLI3, 50 nM for GLI1) were transfected with Interferin from Peqlab (Erlangen) according to the manufacturer's instructions. Twenty-four hours after transfection, the medium was changed and fresh medium without siRNA was added. Changes in gene expression were analyzed by qRT PCR at different time points up to 72 h post-transfection as indicated in figure legends using primers as described above in Example 2 and the following additional primers: […]
Sufu is a known inhibitor of hedgehog signalling. The transfection of hepatocytes with siRNA and real time PCR was performed as described in Example 3. The following additional primers were used: […]

[4] = system: C57Bl/6-N hepatocytes; assay: Silencing of GLI family members by siRNA in hepatocytes, gene expression by qRT-PCR; format: cell-based, murine; conditions: for expression of lipogenic transcription factor Srebp1 (mRNA): FIG. 5
Excerpt: Total RNA from hepatocytes, liver tissue and other organs was extracted using TRIzol (Peqlab, Erlangen). Total RNA from adipose tissue was extracted using the RNeasy Lipid Tissue mini Kit (Quiagen, Hilden). RNA was reverse transcribed using oligo(dt) primers and IM Promm II reverse transcriptase (Promega). The resulting cDNA samples were then quantified for each test gene using target gene-specific primers designed using the online tools Universal ProbeLibrary Probe-Finder software, Perl Primer and Primer 3.
as §4
To analyze the role of GLI family members in C57Bl/6-N hepatocytes on gene expression, murine hepatocytes were isolated and cultured for 72 h upon transfection with siRNA silencing either GLI1, GLI2 or GLI3.
GLI1-, GLI2- and GLI3-specific siRNAs and respective scrambled control siRNAs were purchased from Invitrogen. The following double stranded siRNAs were used for inhibition of GLI1, GLI2 and GLI3:
as §5

[5] = system: C57Bl/6-N hepatocytes; assay: Oil red O staining of neutral lipids in cultured hepatocytes transfected with GLI siRNA; format: cell-based, murine; conditions: 72 h after siRNA transfection, FIG. 8
Protocol: FIG. 8 Staining of neutral lipids by Oil red O in cultured hepatocytes transfected with a) mock, b) GLI1 siRNA, c) GLI2 siRNA and d) GLI3 siRNA determined after 72 h.
as §5
On the contrary neither GLI1 siRNA (FIG. 8b) nor GLI2 siRNA (FIG. 8c) was capable of mediating this effect.

CC1=C2C[C@H]3[C@@H](CC=C4C[C@@H](O)CC[C@@]43C)[C@@H]2CC[C@]12O[C@@H]1C[C@H](C)CN[C@H]1[C@H]2C [cyclopamine, Cyclopamine]
steatosis (accumulation of neutral lipids) [1]: marked steatosis
steatosis (accumulation of neutral lipids) [2]: marked steatosis

Sufu siRNA: double stranded siRNA inhibiting Sufu, SEQ ID No. 7 and 8; preferred GLI3 activating siRNA (chain 1 CCCUUGGACUAUGUUAGCAUGUACA; chain 2 UGUACAUGCUAACAUAGUCCAAGGG; listed as RNA, chemistry not given here)
expression of GLI2 ([3]; FIG. 9): increased expression
expression of GLI3 ([3]; FIG. 9): increased expression
expression of Indian hedgehog (IHH) ([3]; FIG. 9): increased expression
silencing of Sufu ([3]; FIG. 9): Successful silencing
expression of GATA4 ([3]; FIG. 10): increased expression
hepatocellular expression of PPAR-γ ([3]; FIG. 10): reduced
hepatocellular expression of Srebp1 ([3]; FIG. 10): reduced
expression of Cyp17A1 ([3]; FIG. 19): decreased expression

GLI1 siRNA: double stranded siRNA for inhibition of GLI1, SEQ ID No. 1 and 2, purchased from Invitrogen (chain 1 UGGAGAACCUUAGGCUGGAUCAGCU; chain 2 AGCUGAUCCAGCCUAAGGUUCUCCA; listed as RNA, chemistry not given here)
expression of lipogenic transcription factor Srebp1 (mRNA) ([4]; siRNA vs nonsense RNA control): not
accumulation of fat droplets (Oil red O staining of neutral lipids) [5]: comparable phenotype as wild type hepatocytes

GLI3 siRNA: double stranded siRNA for inhibition of GLI3, SEQ ID No. 5 and 6, purchased from Invitrogen (chain 1 UAGCAAGGCCAUCUUGGUCUUCAGG; chain 2 CCUGAAGACCAAGAUGGCCUUGCUA; listed as RNA, chemistry not given here)
IGF1 mRNA ([4]; Gli siRNA, FIG. 23A): downregulates
IGFBP1 mRNA ([4]; Gli siRNA, FIG. 23B): upregulated
expression of lipogenic transcription factor PPAR-γ (mRNA) ([4]; siRNA vs nonsense RNA control, FIG. 4): significantly increased
expression of lipogenic transcription factor Srebp1 (mRNA) ([4]; siRNA vs nonsense RNA control): significantly increased
expression of lipogenic enzyme ELOVL fatty acid elongase 6 (Elovl6) ([4]; siRNA vs nonsense RNA control, FIG. 6): increased expression
expression of lipogenic enzyme fatty acid synthase (Fasn) ([4]; siRNA vs nonsense RNA control, FIG. 7): increased expression
accumulation of fat droplets (Oil red O staining of neutral lipids) [5]: pronounced accumulation of fat droplets

GLI2 siRNA: double stranded siRNA for inhibition of GLI2, SEQ ID No. 3 and 4, purchased from Invitrogen (chain 1 CCACAACCACAACGUUGCUCAGACA; chain 2 UGUCUGAGCAAGCUUGUGGUUGUGG; listed as RNA, chemistry not given here)
expression of lipogenic transcription factor Srebp1 (mRNA) ([4]; siRNA vs nonsense RNA control): not
accumulation of fat droplets (Oil red O staining of neutral lipids) [5]: comparable phenotype as wild type hepatocytes
